Target: T1, Recombinant human KIF18A (1-467 His-tagged) protein (Homo sapiens, UniProt Q8NI77)
T1 construct: Recombinant human KIF18A (1-467 His-tagged) protein; His; made in house
Assay: KIF18A Enzyme Assay: microtubule-stimulated ATPase activity (ADP-Glo)
Assay type: biochemical
Details: 30 nM KIF18A, 30 μg/mL pig microtubules, 75 μM ATP, ADP-Glo luminescence
How it was run: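 IC50 comes from a four-parameter logistic fit over a 22-point, 2-fold series, with ADP quantified by ADP-Glo luminescence. Reactions ran at room temperature: compound plus 30 nM KIF18A(1-467)-His for 15 min, then 75 μM ATP (Km) for 15 min. The buffer held pig microtubules at 30 μg/mL and 1 μM taxol.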

T1 sequence (Q8NI77 1-467): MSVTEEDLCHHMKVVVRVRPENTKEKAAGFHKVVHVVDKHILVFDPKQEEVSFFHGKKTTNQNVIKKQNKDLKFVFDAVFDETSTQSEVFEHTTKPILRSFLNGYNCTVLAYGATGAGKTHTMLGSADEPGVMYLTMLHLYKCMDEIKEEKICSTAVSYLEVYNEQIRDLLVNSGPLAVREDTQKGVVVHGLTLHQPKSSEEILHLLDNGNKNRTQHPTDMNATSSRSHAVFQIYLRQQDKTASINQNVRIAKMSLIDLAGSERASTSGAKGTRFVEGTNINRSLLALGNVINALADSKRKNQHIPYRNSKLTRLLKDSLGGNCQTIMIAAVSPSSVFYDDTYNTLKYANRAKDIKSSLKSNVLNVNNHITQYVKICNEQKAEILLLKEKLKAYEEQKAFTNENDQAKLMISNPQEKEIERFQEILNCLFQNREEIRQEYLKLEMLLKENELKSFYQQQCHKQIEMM
T1 sequence (P02550 whole entry partner): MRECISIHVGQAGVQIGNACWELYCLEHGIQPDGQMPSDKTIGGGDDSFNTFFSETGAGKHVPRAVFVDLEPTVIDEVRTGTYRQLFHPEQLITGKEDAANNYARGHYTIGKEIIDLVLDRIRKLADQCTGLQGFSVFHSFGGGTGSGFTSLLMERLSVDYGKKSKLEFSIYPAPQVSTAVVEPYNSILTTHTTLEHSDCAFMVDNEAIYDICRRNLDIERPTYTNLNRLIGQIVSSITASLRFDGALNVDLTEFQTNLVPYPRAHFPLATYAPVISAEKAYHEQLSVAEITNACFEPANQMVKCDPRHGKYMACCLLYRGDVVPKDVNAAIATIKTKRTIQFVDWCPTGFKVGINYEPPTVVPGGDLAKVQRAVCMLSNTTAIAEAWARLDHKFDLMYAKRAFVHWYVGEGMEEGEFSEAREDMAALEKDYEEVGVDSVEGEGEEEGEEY
T1 sequence (P02554 whole entry partner): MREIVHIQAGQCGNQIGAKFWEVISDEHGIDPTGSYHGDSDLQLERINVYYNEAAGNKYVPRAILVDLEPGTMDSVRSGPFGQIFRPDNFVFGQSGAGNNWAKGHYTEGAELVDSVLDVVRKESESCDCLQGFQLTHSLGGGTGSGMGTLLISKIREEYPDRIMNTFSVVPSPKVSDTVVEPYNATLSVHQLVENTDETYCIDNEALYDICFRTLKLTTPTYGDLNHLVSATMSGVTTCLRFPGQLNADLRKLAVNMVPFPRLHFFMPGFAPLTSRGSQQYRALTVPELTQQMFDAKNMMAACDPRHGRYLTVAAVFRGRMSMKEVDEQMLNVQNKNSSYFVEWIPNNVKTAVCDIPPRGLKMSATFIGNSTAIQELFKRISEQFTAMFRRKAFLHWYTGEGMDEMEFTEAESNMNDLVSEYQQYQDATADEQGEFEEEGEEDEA

Row | IC50 | SMILES
1 | 2260 nM | CC(C)N1CCN(c2cccc(NC(=O)c3ccc(NC(C)(C)CO)nc3N3CCC4(CC3)CC4)n2)CC1 [Example 188, 2-(6-azaspiro[2.5]octan-6-yl)-6-((1-hydroxy-2-methyl-2-propanyl)amino)-N-(6-(4-(2-propanyl)-1-piperazinyl)-2-pyridinyl)-3-pyridinecarboxamide]
2 | 110 nM | CC(C)(CO)Nc1ccc(C(=O)Nc2cccc(N3CCO[C@H](CO)C3)n2)c(N2CCC3(CC2)CC3)n1 [Example 189, 2-(6-azaspiro[2.5]octan-6-yl)-N-(6-((2S)-2-(hydroxymethyl)-4-morpholinyl)-2-pyridinyl)-6-((1-hydroxy-2-methyl-2-propanyl)amino)-3-pyridinecarboxamide]
3 | 693 nM | CC(C)(CO)Nc1ccc(C(=O)Nc2cccc(N3CCN(C4CC4)CC3)n2)c(N2CCC3(CC2)CC3)n1 [Example 190, 2-(6-azaspiro[2.5]octan-6-yl)-N-(6-(4-cyclopropyl-1-piperazinyl)-2-pyridinyl)-6-((1-hydroxy-2-methyl-2-propanyl)amino)-3-pyridinecarboxamide]
4 | 1240 nM | CC(C)(CO)Nc1ccc(C(=O)Nc2cccc(N3CCN(C4CCC4)CC3)n2)c(N2CCC3(CC2)CC3)n1 [Example 191, 2-(6-azaspiro[2.5]octan-6-yl)-N-(6-(4-cyclobutyl-1-piperazinyl)-2-pyridinyl)-6-((1-hydroxy-2-methyl-2-propanyl)amino)-3-pyridinecarboxamide]
5 | 1090 nM | CCN1CCN(c2cccc(NC(=O)c3ccc(NC(C)(C)CO)nc3N3CCC4(CC3)CC4)n2)CC1 [Example 192, 2-(6-azaspiro[2.5]octan-6-yl)-N-(6-(4-ethyl-1-piperazinyl)-2-pyridinyl)-6-((1-hydroxy-2-methyl-2-propanyl)amino)-3-pyridinecarboxamide]
6 | 239 nM | COC(=O)C(F)(C(=O)OC)c1ccc(C(=O)Nc2cccc(S(=O)(=O)NC(C)(C)C)n2)c(N2CCC3(CC2)CC3)n1 [Example 193, dimethyl (6-(6-azaspiro[2.5]octan-6-yl)-5-((6-((2-methyl-2-propanyl)sulfamoyl)-2-pyridinyl)carbamoyl)-2-pyridinyl)(fluoro)propanedioate]
7 | 283 nM | CC(C)(C)NS(=O)(=O)c1cccc(NC(=O)c2ccc(C(F)(CO)CO)nc2N2CCC3(CC2)CC3)n1 [Example 194, 2-(6-azaspiro[2.5]octan-6-yl)-6-(2-fluoro-1,3-dihydroxy-2-propanyl)-N-(6-((2-methyl-2-propanyl)sulfamoyl)-2-pyridinyl)-3-pyridinecarboxamide]
8 | 196 nM | CC(C)(C)NS(=O)(=O)c1cccc(NC(=O)c2ccc(C(F)CO)nc2N2CCC3(CC2)CC3)n1 (stereo not shown) [Example 195, N-(6-(N-(tert-butyl)sulfamoyl)pyridin-2-yl)-6-(1-fluoro-2-hydroxyethyl)-2-(6-azaspiro[2.5]octan-6-yl)nicotinamide]
9 | 158 nM | C[C@@H]1CN(c2cccc(NC(=O)c3ccc(C(F)(CO)CO)nc3N3CCC4(CC3)CC4)n2)CCO1 [Example 196, 2-(6-azaspiro[2.5]octan-6-yl)-6-(2-fluoro-1,3-dihydroxy-2-propanyl)-N-(6-((2R)-2-methyl-4-morpholinyl)-2-pyridinyl)-3-pyridinecarboxamide]
10 | 180 nM | C[C@@H]1CN(c2cccc(NC(=O)c3ccc(C(F)CO)nc3N3CCC4(CC3)CC4)n2)CCO1 (stereo partly drawn) [Example 197, 6-(1-Fluoro-2-hydroxyethyl)-N-(6-((R)-2-methylmorpholino)pyridin-2-yl)-2-(6-azaspiro[2.5]octan-6-yl)nicotinamide]
11 | 156 nM | COC(=O)C(F)(C(=O)OC)c1ccc(C(=O)Nc2cccc(N3CCO[C@H](C)C3)n2)c(N2CCC3(CC2)CC3)n1 [Example 198, dimethyl (6-(6-azaspiro[2.5]octan-6-yl)-5-((6-((2R)-2-methyl-4-morpholinyl)-2-pyridinyl)carbamoyl)-2-pyridinyl)(fluoro)propanedioate]
12 | 636 nM | COCC(C)(C)Nc1ccc(C(=O)Nc2cccc(N3CCO[C@H](C)C3)n2)c(N2CCC3(CC2)CC3)n1 [Example 200, 2-(6-azaspiro[2.5]octan-6-yl)-6-((1-methoxy-2-methyl-2-propanyl)amino)-N-(6-((2R)-2-methyl-4-morpholinyl)-2-pyridinyl)-3-pyridinecarboxamide]
13 | 242 nM | CC(C)C1CN(c2cccc(NC(=O)c3ccc(NC(C)(C)CO)nc3N3CCC4(CC3)CC4)n2)CCO1 (stereo not shown) [Example 203, 6-((1-hydroxy-2-methylpropan-2-yl)amino)-N-(6-(2-isopropylmorpholino)pyridin-2-yl)-2-(6-azaspiro[2.5]octan-6-yl)nicotinamide]
14 | 160 nM | CCC1CN(c2cccc(NC(=O)c3ccc(NC(C)(C)CO)nc3N3CCC4(CC3)CC4)n2)CCO1 (stereo not shown) [Example 204, N-(6-(2-ethylmorpholino)pyridin-2-yl)-6-((1-hydroxy-2-methylpropan-2-yl)amino)-2-(6-azaspiro[2.5]octan-6-yl)nicotinamide]
15 | 123 nM | CC(C)(CO)Nc1ccc(C(=O)Nc2cccc(N3CCOC(C(F)(F)F)C3)n2)c(N2CCC3(CC2)CC3)n1 (stereo not shown) [Example 205, 6-((1-hydroxy-2-methylpropan-2-yl)amino)-2-(6-azaspiro[2.5]octan-6-yl)-N-(6-(2-(trifluoromethyl)morpholino)pyridin-2-yl)nicotinamide]
16 | 692 nM | Cc1cc(NC(=O)c2ccc(OCC(N)(CO)C(F)(F)F)nc2N2CCC3(CC2)CC3)nc(N2CCOCC2)c1 (stereo not shown) [Example 208, 6-(2-amino-3,3,3-trifluoro-2-(hydroxymethyl)propoxy)-N-(4-methyl-6-morpholinopyridin-2-yl)-2-(6-azaspiro[2.5]octan-6-yl)nicotinamide]
17 | 239 nM | CC(C)(CCO)Nc1ccc(C(=O)Nc2cccc(N3CCO[C@H](CO)C3)n2)c(N2CCC3(CC2)CC3)n1 [Example 210, 2-(6-azaspiro[2.5]octan-6-yl)-6-((4-hydroxy-2-methyl-2-butanyl)amino)-N-(6-((2S)-2-(hydroxymethyl)-4-morpholinyl)-2-pyridinyl)-3-pyridinecarboxamide]
18 | 142 nM | Cc1cc(NC(=O)c2ccc(NC(C)(C)CCO)nc2N2CCC3(CC2)CC3)nc(N2CCOCC2)c1 [Example 211, 2-(6-azaspiro[2.5]octan-6-yl)-6-((4-hydroxy-2-methyl-2-butanyl)amino)-N-(4-methyl-6-(4-morpholinyl)-2-pyridinyl)-3-pyridinecarboxamide]
19 | 540 nM | Cc1cc(NC(=O)c2ccc(N3CC(O)CC3(C)C)nc2N2CCC3(CC2)CC3)nc(N2CCOCC2)c1 (stereo not drawn) [Example 212, 6-(4-hydroxy-2,2-dimethylpyrrolidin-l-yl)-N-(4-methyl-6-morpholinopyridin-2-yl)-2-(6-azaspiro[2.5]octan-6-yl)nicotinamide]
20 | 523 nM | C[C@@H]1CN(c2cccc(NC(=O)c3ccc(N4CC(O)CC4(C)C)nc3N3CCC4(CC3)CC4)n2)CCO1 (stereo partly drawn) [Example 213, 6-(4-hydroxy-2,2-dimethylpyrrolidin-1-yl)-N-(6-((R)-2-methylmorpholino)pyridin-2-yl)-2-(6-azaspiro[2.5]octan-6-yl)nicotinamide]
21 | 170 nM | C[C@@H]1CN(c2cccc(NC(=O)c3ccc(NC(C)(C)CCO)nc3N3CCC4(CC3)CC4)n2)CCO1 [Example 214, 2-(6-azaspiro[2.5]octan-6-yl)-6-((4-hydroxy-2-methyl-2-butanyl)amino)-N-(6-((2R)-2-methyl-4-morpholinyl)-2-pyridinyl)-3-pyridinecarboxamide]
22 | 330 nM | CC(C)(CO)Nc1ccc(C(=O)Nc2cccc(N3CCC(O)CC3)n2)c(N2CCC3(CC2)CC3)n1 [Example 215, 2-(6-azaspiro[2.5]octan-6-yl)-6-((1-hydroxy-2-methyl-2-propanyl)amino)-N-(6-(4-hydroxy-1-piperidinyl)-2-pyridinyl)-3-pyridinecarboxamide]
23 | 80.4 nM | CC(C)(CO)Nc1ccc(C(=O)Nc2cccc(N3CCC[C@@H](O)C3)n2)c(N2CCC3(CC2)CC3)n1 [Example 216, 2-(6-azaspiro[2.5]octan-6-yl)-6-((1-hydroxy-2-methyl-2-propanyl)amino)-N-(6-((3R)-3-hydroxy-1-piperidinyl)-2-pyridinyl)-3-pyridinecarboxamide]
24 | 222 nM | COCC(C)(CO)Nc1ccc(C(=O)Nc2cccc(N3CCO[C@H](C)C3)n2)c(N2CCC3(CC2)CC3)n1 (stereo partly drawn) [Example 217, 6-((1-hydroxy-3-methoxy-2-methylpropan-2-yl)amino)-N-(6-((R)-2-methylmorpholino)pyridin-2-yl)-2-(6-azaspiro[2.5]octan-6-yl)nicotinamide]
25 | 150 nM | C[C@@H]1CN(c2cccc(NC(=O)c3ccc(NS(C)(=O)=O)nc3N3CCC4(CC3)CC4)n2)CCO1 [Example 218, 2-(6-azaspiro[2.5]octan-6-yl)-N-(6-((2R)-2-methyl-4-morpholinyl)-2-pyridinyl)-6-((methylsulfonyl)amino)-3-pyridinecarboxamide]
26 | 217 nM | CC(C)(CO)Nc1ccc(C(=O)Nc2cccc(N3CC(O)CC3(C)C)n2)c(N2CCC3(CC2)CC3)n1 (stereo not shown) [Example 219, N-(6-(4-hydroxy-2,2-dimethylpyrrolidin-1-yl)pyridin-2-yl)-6-((1-hydroxy-2-methylpropan-2-yl)amino)-2-(6-azaspiro[2.5]octan-6-yl)nicotinamide]
27 | 357 nM | CC(C)(CO)Nc1ccc(C(=O)Nc2cccc(N3CCC(O)C3(C)C)n2)c(N2CCC3(CC2)CC3)n1 (stereo not shown) [Example 221, N-(6-(3-hydroxy-2,2-dimethylpyrrolidin-1-yl)pyridin-2-yl)-6-((1-hydroxy-2-methylpropan-2-yl)amino)-2-(6-azaspiro[2.5]octan-6-yl)nicotinamide]

Row | SMILES | IC50
28 | C[C@@H]1CN(c2cccc(NC(=O)c3ccc(OCCC(C)(C)N)nc3N3CCC4(CC3)CC4)n2)CCO1 [Example 209, 6-(3-amino-3-methylbutoxy)-2-(6-azaspiro[2.5]octan-6-yl)-N-(6-((2R)-2-methyl-4-morpholinyl)-2-pyridinyl)-3-pyridinecarboxamide] | 411 nM

From patent publication US12441736B2, “KIF18A inhibitors” (AMGEN INC., priority 2018, dated 2025)
